The values below come from patent US10440955B2, “Methods comprising a biocidal polyamine” (Curza Global, LLC, priority 2013, dated 2019).

“And” between values parts separate entries of the source, which are not always exact repeats. Equal values may be shown once. Where a name gives a salt, the structure may show the parent alone. Read-outs that look alike come from different tables or passages of the source.

One data set relates to L-929 cells (ATCC CCL-1). Put plainly: Minimal Essential Media (MEM) Elution cytotoxicity test. The class given is cell-based. In outline: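 L-929 cells (ATCC CCL-1) were seeded in multiwell plates and grown to roughly 80% confluence. Test article dilutions (1:2, 1:4, 1:8, 1:16) and control extracts were applied in triplicate and incubated 48±3 hours at 37±1° C. in 5±1% CO2. Wells were scored microscopically for morphological cytotoxicity on a 0–4 scale and averaged; Pass required grade not greater than 2 per USP <87>.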

The subject of a further data set is A. baumannii biofilms. Put plainly: MBEC, MBEC Inoculation Tray (Innovotech), to 10^2 CFU/peg in 24 hours. In kind it is cell-based, Acinetobacter baumannii. The text has this: To determine the MBEC of each polyamine compound, the MBEC Inoculation Tray by Innovotech, formerly known as the Calgary biofilm device, was used. Within this device, biofilms grow on the surface of polystyrene pegs, 96 of which are attached to a lid. These pegs are inserted into a flat bottom 96-well plate. In this instance, the MBEC of a molecule was defined as the concentration of compound (in μg/mL) required to reduce 10^5 or 10^6 CFU/peg (biofilm levels varied by isolate) to 10^2 CFU/peg in a 24-hour period.
Following the manufacturer's guidelines, biofilms were grown on the surface of each peg by first making a 0.5 McFarland of each isolate. The 0.5 McFarland was diluted 1:100 in CAMHB. Into each well of a flat bottom 96-well plate, 150 μL of broth were pipetted. The plate was shaken at 100 rpm for 24 hours (P. aeruginosa and A. baumannii) or 48 hours (MRSA). The pegs were then placed into a separate flat bottom 96-well plate for 10 seconds with 200 μL of phosphate buffered saline (PBS) in each well to remove nonadherent cells. The lid was then placed into a 96-well plate that contained varying concentrations of antimicrobial with 200 μL per well. The plate was incubated for 24 hours at 37° C. after which time 100 μL of broth were plated on TSA. TSA plates were incubated 24 hours at 37° C. and the number of CFU counted to calculate the CFU/peg. In this instance, the MBEC was defined as the concentration of antimicrobial required to reduce 10^5 or 10^6 CFU/peg to 10^2 CFU/peg in a 24 hour period.
To determine the MBEC, the MBEC Inoculation Tray by Innovotech, formerly known as the Calgary biofilm device, is used. Within this device, biofilms grow on the surface of polystyrene pegs, 96 of which are attached to a lid. These pegs are inserted into a flat bottom 96-well plate. In this instance, the MBEC of a molecule is defined as the concentration of compound required to reduce approximately 10^6 CFU/peg to approximately 10^2 CFU/peg in a 24-hour period.
Following the manufacturer's guidelines, biofilms are grown on the surface of each peg by first making a 0.5 McFarland of A. baumannii. The 0.5 McFarland is diluted 1:100 in CAMHB broth. Into each well of a flat bottom 96-well plate, 150 μL of broth is pipetted. The plate is shaken at 100 rpm for 24 hours. The pegs are placed into a separate flat bottom 96-well plate for 10 seconds with 200 μL of phosphate buffered saline (PBS) in each well to remove nonadherent cells. The lid is placed into a 96-well plate that contains varying concentrations of antimicrobial with 200 μL of broth per well. The plate is incubated for 24 hours at 37° C. after which time 100 μL of broth is plated on TSA. TSA plates is incubated 24 hours at 37° C. and the number of CFU counted to calculate the CFU/peg.
MBEC data were collected using the MBEC Inoculation Tray by Innovotech. The MBEC was defined in these preliminary results as the concentration of antimicrobial required to reduce 10^5 or 10^6 CFU/peg to 10^2 CFU/peg in a 24-hour period.

A further data set relates to MRSA. Put plainly: MIC, 96-well CAMHB, 10^5 to 10^2 CFU/mL in 24 hours. In kind it is cell-based, Staphylococcus aureus. Conditions: Staphylococcus aureus, MRSA. In outline:
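Compound exposure was 24 h at 37 °C in CAMHB with an inoculum of ~5×10^5 CFU/mL from a 0.5 McFarland; eight replicates per concentration.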

For `NCCCNCCCNCc1cc(CNCCCNCCCN)cc(CNCCCNCCCN)c1` [CZ-52, N^1,N^1′,N^1″-(benzene-1,3,5-triyltris(methylene))tris(N^3-(3-aminopropyl)propane-1,3-diamine), hydrochloride salt], the “Results Pass/Fail” value is listed as “Pass (receives a passing score (Pass) if the reactivity grade is not greater than grade 2 or a mild reactivity)” in the data set with L-929 cells (ATCC CCL-1) (Table 9A, 3.125 μg/mL); “Fail (a numerical grade greater than 2 is considered a cytotoxic effect, or a failing score (Fail))” in the data set with L-929 cells (ATCC CCL-1) (Table 9A, 6.25 μg/mL); “Fail (a numerical grade greater than 2 is considered a cytotoxic effect, or a failing score (Fail))” with L-929 cells (ATCC CCL-1) (Table 9A, 12.5 μg/mL); “Fail (a numerical grade greater than 2 is considered a cytotoxic effect, or a failing score (Fail))” in the data set with L-929 cells (ATCC CCL-1) (Table 9A, 25 μg/mL); “Pass (receives a passing score (Pass) if the reactivity grade is not greater than grade 2 or a mild reactivity)” with L-929 cells (ATCC CCL-1) (Table 9A, 1.563 (unit not given)). Also, the “MBEC μg/mL (μM) A. baumannii” value with A. baumannii biofilms (Table 4) is over 500 µg/mL.
“Polymyxin B sulfate [reference compound]”: the “MBEC μg/mL (μM) A. baumannii” value was 50 µg/mL with A. baumannii biofilms (Table 4) and “(36) μM” in the data set on A. baumannii biofilms (Table 4, value in parentheses).
For `NCCCNCCCNCc1ccccc1` [CZ-7, benzylnorspermidine], the MIC in the data set with MRSA (Table 3A c1, read-out: MICs (μg/mL): MRSA (first MRSA column)) is over 500 µg/mL; in the data set on MRSA (Table 4, value in parentheses, read-out: MIC μg/mL (μM) MRSA), over 2260 µM; with MRSA (Table 4, read-out: MIC μg/mL (μM) MRSA) it was over 500 µg/mL; in the data set on MRSA (Table 5, read-out: MIC (MRSA)) it was over 100 µM. Also, the “MBEC μg/mL (μM) A. baumannii” value was over 500 µg/mL in the data set with A. baumannii biofilms (Table 4) and “(>2,259) μM” in the data set on A. baumannii biofilms (Table 4, value in parentheses).
Take `CN[C@H](CC(C)C)C(=O)N[C@H]1C(=O)N[C@@H](CC(N)=O)C(=O)N[C@H]2C(=O)N[C@H]3C(=O)N[C@H](C(=O)N[C@H](C(=O)O)c4cc(O)cc(O)c4-c4cc3ccc4O)[C@H](O)c3ccc(c(Cl)c3)Oc3cc2cc(c3O[C@@H]2O[C@H](CO)[C@@H](O)[C@H](O)[C@H]2O[C@H]2C[C@](C)(N)[C@H](O)[C@H](C)O2)Oc2ccc(cc2Cl)[C@H]1O` [vancomycin, reference compound]: the MIC with MRSA (read-out: MIC μg/mL (μM) MRSA) was 10 µg/mL and 6.9 µM; in the data set with MRSA (read-out: MICs (μg/mL): MRSA (first MRSA column)) it was 10 µg/mL.
Consider `CC(C)CNCCCNCCCNCc1cc(CNCCCNCCCNCC(C)C)cc(-c2ccccc2)c1` [CZ-86, N^1,N^1′-([1,1′-biphenyl]-3,5-diylbis(methylene))bis(N^3-(3-(isobutylamino)propyl)propane-1,3-diamine), hydrochloride salt], for which the “Results Pass/Fail” value with L-929 cells (ATCC CCL-1) (Table 8A, 400 μg/mL) is “Fail (a numerical grade greater than 2 is considered a cytotoxic effect, or a failing score (Fail))”; in the data set with L-929 cells (ATCC CCL-1) (Table 8A, dilution 1:2 of 400 μg/mL), “Fail (a numerical grade greater than 2 is considered a cytotoxic effect, or a failing score (Fail))”; in the data set on L-929 cells (ATCC CCL-1) (Table 8A, dilution 1:4 of 400 μg/mL), “Fail (a numerical grade greater than 2 is considered a cytotoxic effect, or a failing score (Fail))”; in the data set with L-929 cells (ATCC CCL-1) (Table 8A, dilution 1:8 of 400 μg/mL) it was “Pass (receives a passing score (Pass) if the reactivity grade is not greater than grade 2 or a mild reactivity)”; in the data set on L-929 cells (ATCC CCL-1) (Table 8A, dilution 1:16 of 400 μg/mL), “Pass (receives a passing score (Pass) if the reactivity grade is not greater than grade 2 or a mild reactivity)”. In the data set with MRSA (read-out: MIC (MRSA)), the MIC is under 50 µM.
On to `NCCCNCCCNCc1cccc(CNCCCNCCCN)c1` [CZ-25, N^1,N^1′-(1,3-phenylenebis(methylene))bis(N3-(3-ammoniopropyl)propane-1,3-diaminium) chloride], for which, in the data set with A. baumannii biofilms (Table 4), the “MBEC μg/mL (μM) A. baumannii” value worked out at 450 µg/mL.
`NCCCNCCCNCc1cc(CNCCCNCCCN)cc(-c2ccccc2)c1` [CZ-58, N^1,N^1′-([1,1′-biphenyl]-3,5-diylbis(methylene))bis(N^3-(3-ammoniopropyl)propane-1,3-diaminium) chloride]: the “Results Pass/Fail” value is recorded as “Fail (a numerical grade greater than 2 is considered a cytotoxic effect, or a failing score (Fail))” in the data set on L-929 cells (ATCC CCL-1) (Table 10A, 25 μg/mL); “Fail (a numerical grade greater than 2 is considered a cytotoxic effect, or a failing score (Fail))” in the data set on L-929 cells (ATCC CCL-1) (Table 10A, dilution 1:2 of 25 μg/mL); “Pass (receives a passing score (Pass) if the reactivity grade is not greater than grade 2 or a mild reactivity)” in the data set on L-929 cells (ATCC CCL-1) (Table 10A, dilution 1:4 of 25 μg/mL); “Pass (receives a passing score (Pass) if the reactivity grade is not greater than grade 2 or a mild reactivity)” with L-929 cells (ATCC CCL-1) (Table 10A, dilution 1:8 of 25 μg/mL); “Pass (receives a passing score (Pass) if the reactivity grade is not greater than grade 2 or a mild reactivity)” in the data set on L-929 cells (ATCC CCL-1) (Table 10A, dilution 1:16 of 25 μg/mL). The “MBEC μg/mL (μM) A. baumannii” value was over 50 µg/mL with A. baumannii biofilms (Table 4) and “(>113) μM” in the data set on A. baumannii biofilms (Table 4, value in parentheses).
